Laboratory results: PMC11061419, “Identification of novel small molecule inhibitors of twin arginine translocation (Tat) pathway and their effect on the control of Campylobacter jejuni in chickens” (Frontiers in Microbiology, 2024)
Values after ≈ are worked out from the molar mass of the structure shown. Values joined by “and” are separate entries in the source; they are usually repeats but may differ in a detail not shown here. Equal values may be shown once.

Key:
[1] = system: intracellular C. jejuni 81–176 in Caco-2 cells; assay: Copper sulfate sensitivity dose–response assay in infected Caco-2 colon epithelial cells; format: cell-based, Campylobacter jejuni; details: 0.5 mM CuSO4; for SM concentration that completely cleared intracellular C. jejuni 81–176 in Caco-2 cells (MBC in Caco2 cells): 24 h treatment; for C. jejuni 81–176 MBC in Caco2 cells: infected Caco-2 cells, 24 h
Protocol: The intracellular reduction in C. jejuni in the presence of a given SM (T1-T8) and 0.5 mM CuSO4 were evaluated using Caco-2 cells, as previously described ([Kumar et al., 2016]; [Deblais et al., 2019]). In brief, cells were infected for 2 h using a multiplicity of infection (MOI) of 100. Infected cells were treated with SM at a final concentration ranging between 5 and 0.315 μg/mL and incubated at 37°C for 24 h in a humidified 5% CO2 incubator. Following incubation, cells were washed once with 1X PBS, lysed with 0.1% Triton-100X, serially 10-fold diluted in 1X PBS, and plated on MH agar plate. Plates were incubated in microaerophilic conditions at 42°C for 24 h, to determine the intracellular survival. Cells not infected and not treated and cells infected and treated with 1% DMSO were used as controls (N = two independent experiments with four technical replicate for each SM).

[2] = system: C. jejuni 81–176; assay: Copper sulfate sensitivity dose–response assay in vitro (MIC/MBC); format: cell-based, Campylobacter jejuni; details: for MBC / MIC: Campylobacter jejuni, 0.5 mM CuSO4, head displaced; for MBC: read-out: MBC, C. jejuni (Table S5); for MIC: read-out: MIC, C. jejuni (Table S4); for C. jejuni 81–176 in vitro MBC: minimal bactericidal concentration in presence of 0.5 mM CuSO4; for C. jejuni 81–176 in vitro MIC: minimal bacteriostatic concentration in presence of 0.5 mM CuSO4
Protocol: (§1) In total, 19 SMs were two-fold serially diluted to obtain a final SM concentration ranging from 6.25 to 0.012 μg/mL. C. jejuni 81–176 was then treated with a determined concentration of SM, as described in the copper sensitivity assay. […] The lowest bactericidal SM concentration was considered the MBC (no increase in OD600 over time and no viable cells were recovered on agar plate after challenge) (N = 3 replicates per SM). […] However, these SMs were two-fold serially diluted to obtain a final SM concentration ranging from 5 μg to 0.0625 μg for testing (N = two independent experiments with four technical replicate for each SM).

[3] = system: Campylobacter spp. (12 strains); assay: Activity spectrum against Campylobacter strains at 6.25 μg/mL with 0.5 mM CuSO4; format: cell-based, Campylobacter jejuni, Campylobacter coli; details: 6.25 μg/mL SM
[4] = system: C. jejuni Au-45; assay: Copper sulfate sensitivity dose–response assay in vitro (MIC/MBC); format: cell-based; details: Campylobacter jejuni; for MIC: AU45, read-out: MIC, Au-45 (Table S4); for MBC: AU45, 0.5 mM CuSO4, read-out: MBC, Au-45 (Table S5)
Protocol: (§2) Campylobacter jejuni 81–176 was the primary model strain used for the selection of the potential Tat-dependent inhibitors by high-throughput screening. C. jejuni 81–176 is resistant to 0.5 and 1 mM CuSO4 (Supplementary Figure S1). C. jejuni 81–176 tatC knockout mutant (C. jejuni ΔtatC) was used to confirm the Tat-dependent inhibitory effect of the selected SM. C. jejuni ΔtatC is susceptible to 0.5 mM and higher of CuSO4 ([Rajashekara et al., 2009]). The specificity of the Tat-dependent inhibitors was also tested on 11 additional Campylobacter strains (C. coli ATCC33559 and 10 other C. jejuni strains isolated from chickens) and 7 commensal/beneficial bacteria (Supplementary Table S1). The […] (Au-13, Au-20, Au-38, Au-39, Au-47, Au-50, Au-24, Au-32, Au-44, and Au-45) were selected based on their single nucleotide polymorphism (SNP)-type and percent of prevalence in chickens ([Merchant-Patel et al., 2008]; [Kumar et al., 2016]). Additional details about the bacterial strains are shown in Supplementary Table S1.
as §1

[5] = system: C. jejuni Au-24; assay: as above; format: cell-based; details: Campylobacter jejuni; for MIC: AU24, read-out: MIC, Au-24 (Table S4); for MBC: AU24, 0.5 mM CuSO4, read-out: MBC, Au-24 (Table S5)
Protocol: as §2, §1

[6] = system: C. jejuni Au-20; assay: as above; format: cell-based; details: Campylobacter jejuni; for MIC: AU20, read-out: MIC, Au-20 (Table S4); for MBC: AU20, 0.5 mM CuSO4, read-out: MBC, Au-20 (Table S5)
Protocol: as §2, §1

[7] = system: C. jejuni Au-50; assay: as above; format: cell-based; details: Campylobacter jejuni; for MIC: AU50, read-out: MIC, Au-50 (Table S4); for MBC: AU50, 0.5 mM CuSO4, read-out: MBC, Au-50 (Table S5)
Protocol: as §2, §1

[8] = system: C. coli ATCC33559; assay: as above; format: cell-based; details: Campylobacter coli; for MIC: ATCC33559, read-out: MIC, C. coli (Table S4); for MBC: ATCC33559, 0.5 mM CuSO4, read-out: MBC, C. coli (Table S5)
Protocol: as §2, §1

[9] = system: C. jejuni Au-38; assay: as above; format: cell-based; details: Campylobacter jejuni; for MIC: AU38, read-out: MIC, Au-38 (Table S4); for MBC: AU38, 0.5 mM CuSO4, read-out: MBC, Au-38 (Table S5)
Protocol: as §2, §1

[10] = system: C. jejuni Au-44; assay: as above; format: cell-based; details: Campylobacter jejuni; for MIC: AU44, read-out: MIC, Au-44 (Table S4); for MBC: AU44, 0.5 mM CuSO4, read-out: MBC, Au-44 (Table S5)
Protocol: as §2, §1

[11] = system: C. jejuni Au-47; assay: as above; format: cell-based; details: Campylobacter jejuni; for MIC: AU47, read-out: MIC, Au-47 (Table S4); for MBC: AU47, 0.5 mM CuSO4, read-out: MBC, Au-47 (Table S5)
Protocol: as §2, §1

[12] = system: C. jejuni Au-13; assay: as above; format: cell-based; details: Campylobacter jejuni; for MIC: AU13, read-out: MIC, Au-13 (Table S4); for MBC: AU13, 0.5 mM CuSO4, read-out: MBC, Au-13 (Table S5)
Protocol: as §2, §1

[13] = system: C. jejuni Au-39; assay: as above; format: cell-based; details: Campylobacter jejuni; for MIC: AU39, read-out: MIC, Au-39 (Table S4); for MBC: AU39, 0.5 mM CuSO4, read-out: MBC, Au-39 (Table S5)
Protocol: as §2, §1

[14] = system: C. jejuni Au-32; assay: as above; format: cell-based; details: Campylobacter jejuni; for MIC: AU32, read-out: MIC, Au-32 (Table S4); for MBC: AU32, 0.5 mM CuSO4, read-out: MBC, Au-32 (Table S5)
Protocol: as §2, §1

[15] = system: Caco-2 cells; assay: Cytotoxicity on Caco-2 colon epithelial cells (LDH assay); format: cell-based; details: for cytotoxicity index on Caco-2 cells: 5 μg SM /ml, 24 h
Protocol: Cytotoxicity of the eight SMs (T1-T8) was tested on Caco-2 cells at 5, 25, and 50 μg/mL, as previously described ([Kumar et al., 2016]; [Deblais et al., 2019]). In brief, a 96-well plate seeded with approximately 1.4 × 10^5 Caco-2 cells/well in MEM medium was challenged with a final SM concentration of 5, 25, and 50 μg/mL. After 24 h of incubation at 37°C in a humidified 5% CO2 incubator, cytotoxic effects were determined using the PierceTM Lactate Dehydrogenase Cytotoxicity Assay Kit (Thermo Fisher Scientific). Cell death was measured based on the production of formazan (chromogenic dye), which can be read at OD570. Equal concentrations (5, 25, and 50 μg/mL) of kanamycin or chloramphenicol, 1% DMSO, and 10X lysis buffer were used as control. The cytotoxicity level was calculated according to the manufacturer’s instructions (N = two independent experiments with three technical replicate for each SM).

Structure (SMILES) | SM concentration that completely cleared intracellular C. jejuni 81–176 in Caco-2 cells (MBC in Caco2 cells) [1] | C. jejuni 81–176 MBC in Caco2 cells [1] [mg/L] | MBC [2] [mg/L] | MIC [2] [mg/L] | C. jejuni 81–176 in vitro MBC [2] [mg/L] | C. jejuni 81–176 in vitro MIC [2] [mg/L] | Growth inhibition at 6.25 μg/mL, Campylobacter spp. (strains inhibited/tested) [3] | MIC [4] [mg/L] | MBC [4] [mg/L] | MIC [5] [mg/L] | MBC [5] [mg/L] | MIC [6] [mg/L] | MBC [6] [mg/L] | MIC [7] [mg/L] | MBC [7] [mg/L] | MIC [8] [mg/L] | MBC [8] [mg/L] | MIC [9] [mg/L] | MBC [9] [mg/L] | MIC [10] [mg/L] | other results
CCN(CC)/C(C)=N/C(=O)Nc1ccccc1 [T8] | < 5 mg/L and 5 mg/L | 5 | 0.12 (≈ 0.514 µM) | 0.08 (≈ 0.343 µM) | 0.12 | 0.08 | 12/12 | 0.25 (≈ 1.07 µM) | 0.25 (≈ 1.07 µM) | 0.06 (≈ 0.257 µM) | 0.06 (≈ 0.257 µM) | 0.25 (≈ 1.07 µM) | 0.25 (≈ 1.07 µM) | 0.25 (≈ 1.07 µM) | 0.5 (≈ 2.14 µM) | 0.25 (≈ 1.07 µM) | 0.25 (≈ 1.07 µM) | 0.06 (≈ 0.257 µM) | 0.06 (≈ 0.257 µM) | 0.06 (≈ 0.257 µM) | MBC [10]: 0.12 mg/L (≈ 0.514 µM); MIC [11]: 0.06 mg/L (≈ 0.257 µM); MBC [11]: 0.06 mg/L (≈ 0.257 µM); MIC [12]: 0.06 mg/L (≈ 0.257 µM); MBC [12]: 0.06 mg/L (≈ 0.257 µM); MIC [13]: 0.25 mg/L (≈ 1.07 µM); MBC [13]: 0.25 mg/L (≈ 1.07 µM); MIC [14]: 0.25 mg/L (≈ 1.07 µM); MBC [14]: 0.25 mg/L (≈ 1.07 µM); cytotoxicity index on Caco-2 cells [15]: < 20%; toxicity level to Caco-2 cells ([15]; 25 μg/mL or 50 μg/mL of SM for 24 h): 33%
CC(C)(C)NC(=S)NNc1c(Cl)cncc1Cl [T2] | < 5 mg/L | 1.25 | 0.62 (≈ 2.11 µM) | 0.01 (≈ 0.0341 µM) | 0.62 | 0.01 | 12/12 | 0.62 (≈ 2.11 µM) | 1.24 (≈ 4.23 µM) | 0.31 (≈ 1.06 µM) | 0.62 (≈ 2.11 µM) | 0.62 (≈ 2.11 µM) | 1.24 (≈ 4.23 µM) | 0.31 (≈ 1.06 µM) | 0.62 (≈ 2.11 µM) | 0.62 (≈ 2.11 µM) | 1.24 (≈ 4.23 µM) | 0.62 (≈ 2.11 µM) | 1.24 (≈ 4.23 µM) | 0.31 (≈ 1.06 µM) | MBC [10]: 0.62 mg/L (≈ 2.11 µM); MIC [11]: 0.31 mg/L (≈ 1.06 µM); MBC [11]: 0.62 mg/L (≈ 2.11 µM); MIC [12]: 0.31 mg/L (≈ 1.06 µM); MBC [12]: 0.62 mg/L (≈ 2.11 µM); MIC [13]: 0.31 mg/L (≈ 1.06 µM); MBC [13]: 0.62 mg/L (≈ 2.11 µM); MIC [14]: 0.62 mg/L (≈ 2.11 µM); MBC [14]: 1.24 mg/L (≈ 4.23 µM); cytotoxicity index on Caco-2 cells [15]: < 20%
